A word on the ΔTm: it is the change in melting temperature against a reference sample.

The subject of assay [1] is Tel22 (DNA, G4) AGGGTTAGGGTTAGGGTTAGGG
Nature of the assay: UV-Vis titration, Direct Fit. The following applies: 5 mM K+, 95 mM Li+; 10 mM lithium cacodylate, pH 7.2; equivalent independent sites assumed; per site.

For assay [2], the system named is F21D (DNA, G4) GGGTTAGGGTTAGGGTTAGGG
Briefly: FRET melting. The following applies: 5 mM K+, 95 mM Li+, 10 mM lithium cacodylate, pH 7.2, 0.2 µM F21D.

For `NCCCNCCCCNCCCNC(=O)c1ccc(-c2c3nc(c(-c4ccc(C(=O)NCCCNCCCCNCCCN)cc4)c4ccc([n-]4)c(-c4ccc(C(=O)NCCCNCCCCNCCCN)cc4)c4nc(c(-c5ccc(C(=O)NCCCNCCCCNCCCN)cc5)c5ccc2[n-]5)C=C4)C=C3)cc1.O.[Zn+2]`, the Ka entry in assay [1] is “(1.4 ± 0.7) × 10^7 M^-1”. Further, the ΔTm in assay [2] (20 eq. compound, weak stabilization up to 8 eq.) was 33 ± 2 °C.
`NCCCNCCCCNCCCNC(=O)c1ccc(-c2c3nc(c(-c4ccc(C(=O)NCCCNCCCCNCCCN)cc4)c4ccc([nH]4)c(-c4ccc(C(=O)NCCCNCCCCNCCCN)cc4)c4nc(c(-c5ccc(C(=O)NCCCNCCCCNCCCN)cc5)c5ccc2[nH]5)C=C4)C=C3)cc1`: the Ka entry in assay [1] is given as “(4.7 ± 0.7) × 10^6 M^-1”. Moreover, the thermal shift (ΔTm) in assay [2] (7.5 eq. compound) is 36 ± 2 °C.

The record behind these values is article PMC6274827 (2018).
